{"source": "patent US9073927B2", "about": "“Inhibitors of PI3 kinase” (FUNDACION CENTRO NACIONAL DE INVESTIGACIONES ONCOLOGICAS …, priority 2010, dated 2015)", "key": {"[1]": {"biological_target": "T1, PI3K (p110α/p85α) (Homo sapiens, UniProt P42336)", "T1 construct": "purchased Carna Biosciences 07CBS-0402A", "experiment": "PI3K activity assay (ADP Hunter Plus)", "assay_type": "biochemical", "method": "The kinase activity was measured by using the commercial ADP Hunter™ Plus assay available from DiscoveRx (#33-016), which is a homogeneous assay to measure the accumulation of ADP, a universal product of kinase activity. The enzyme, PI3K (p110α/p85α was purchased from Carna Biosciences (#07CBS-0402A). The assay was done following the manufacturer recommendations with slight modifications: Mainly the kinase buffer was replace by 50 mM HEPES, pH 7.5, 3 mM MgCl2, 100 mM NaCl, 1 mM EGTA, 0.04% CHAPS, 2 mM TCEP and 0.01 mg/ml BGG. The PI3K was assayed in a titration experiment to determine the optimal protein concentration for the inhibition assay. To calculate the IC50 of the ETP-compounds, serial 1:5 dilutions of the compounds were added to the enzyme at a fixed concentration (2.5 μg/ml. The enzyme was preincubated with the inhibitor and 30 μM PIP2 substrate (P9763, Sigma) for 5 min and then ATP was added to a final 50 μM concentration. Reaction was carried out for 1 hour at 25° C. Reagent A and B were sequentially added to the wells and plates were incubated for 30 min at 37° C. Fluorescence counts were read in a Victor instrument (Perkin Elmer) with the recommended settings (544 and 580 nm as excitation and emission wavelengths, respectively). Values were normalized against the control activity included for each enzyme (i.e., 100% PI3 kinase activity, without compound). These values were plot against the inhibitor concentration and were fit to a sigmoid dose-response curve by using the Graphad software."}, "[2]": {"tested_on": "phospho-Ser-473-Akt", "experiment": "PI3K signalling: AKT phosphorylation inhibition, Western blot analysis", "assay_type": "cell-based", "conditions": "read-out: p-AKT (IC50, WB)", "method": "AKT Phosphorylation Inhibition Western Blot Analysis\nSubconfluent cells were incubated under different conditions and washed twice with TBS prior to lysis. Lysis buffer was added containing 50 mM Tris HCl, 150 mM NaCl, 1% NP-40, 2 mM Na3VO4, 100 mM NaF, 20 mM Na4P2O7 and protease inhibitor cocktail (Roche Molecular Biochemicals). The proteins were resolved on 10% SDS-PAGE and transferred to nitrocellulose membrane (Schleicher & Schuell, Dassel, Germany). The membranes were incubated overnight at 4° C. with antibodies specific for Akt, phospho-Ser-473-Akt (Cell Signaling Technology) and α-tubulin (Sigma), they were washed and then incubated with IRDye800 conjugated anti-mouse and Alexa Fluor 680 goat anti-rabbit IgG secondary antibodies. The bands were visualized using an Odyssey infrared imaging system (Li-Cor Biosciences). Compounds of the invention have a range of in vitro cell potency activities from about 1 nM to about 10 μM.\nCompounds of the examples/invention were tested in the PI3K signalling cellular assay described hereinbefore (Western Blot Analysis), which measures AKT phosphorylation inhibition. Cellular activity of representative compounds, is represented in the table below: […]"}, "[3]": {"tested_on": "SKVO3 cells", "experiment": "In vitro cell proliferation / combination assay (MTT), SKVO3", "assay_type": "cell-based", "conditions": "SKVO3, Ovarian, PIK3CA, p53", "method": "Cells were seeded at 10000-50000 cells/well in 96 plates for 16 h. On day two, nine serial 1:3 compound dilutions were made in DMSO in a 96 well plate. The compounds were added to duplicate wells in 96-well cell plates a using a FX BECKMAN robot (Beckman Coulter) and incubated at 37° C. with CO2 atmosphere. After 3 days, relative numbers of viable cells were measured by MTT (Sigma) according to manufacturer's instruction and read on EndVision (Perkin Elmer). EC50 values were calculated using Activityl)ase from IDBS. Drugs in combination assays were dosed starting at 4×EC50 concentrations and continuing with serial dilutions 1:2. […]\nAn additional exemplary in vitro cell proliferation assay includes the following steps: • 1. […] Formazan salt formed was recorded and reported in graphs as relative growth vs. cells treated only with dmso.\nThe individual measured EC50 values against the particular cell of the exemplary compounds and of the chemotherapeutic agent are compared to the combination EC50 value. The combination Index (CI) score is calculated by the Chou and Talalay method (CalcuSyn software, Biosoft). […]\nThe individual measured EC50 values against the particular cell of the exemplary compounds and of the chemotherapeutic agents are compared to the combination EC50 value. The combination Index (CI) score is calculated by the Chou and Talalay method (CalcuSyn software, Biosoft). […]"}, "[4]": {"tested_on": "A549 cells", "experiment": "In vitro cell proliferation / combination assay (MTT), A549", "assay_type": "cell-based", "conditions": "for Synergy / Combination Index (Cl): A549; for Combination Index (Cl): Chou and Talalay; for EC50: Homo sapiens, A549, Lung, Ras G12S", "method": "Cells were seeded at 10000-50000 cells/well in 96 plates for 16 h. On day two, nine serial 1:3 compound dilutions were made in DMSO in a 96 well plate. The compounds were added to duplicate wells in 96-well cell plates a using a FX BECKMAN robot (Beckman Coulter) and incubated at 37° C. with CO2 atmosphere. After 3 days, relative numbers of viable cells were measured by MTT (Sigma) according to manufacturer's instruction and read on EndVision (Perkin Elmer). EC50 values were calculated using Activityl)ase from IDBS. Drugs in combination assays were dosed starting at 4×EC50 concentrations and continuing with serial dilutions 1:2. PI3K inhibitors and chemotherapeutic agents were added simultaneously.\nAn additional exemplary in vitro cell proliferation assay includes the following steps: • 1. An aliquot of 200 μl of cell culture containing optimal density (between 10^4-5×10^4 cells) (see Examples for cell lines and tumour type) in medium was deposited in each well of a 96-well flat bottom plates. • 2. Control wells were prepared containing medium without cells • 3. The compound was added to the experimental wells and incubated for 3 days. • 4. One quarter volume of MTT reagent with respect to the volume of cell culture medium present in each well was added and incubated 24 h at 37° C. with 5% CO2. • 5. One quarter volume of solubilisation buffer with respect to the volume of cell culture medium present in each well was added and incubated 24 h at 37° C. with 5% CO2. • 6. Formazan salt formed was recorded and reported in graphs as relative growth vs. cells treated only with dmso.\n(§1) The individual measured EC50 values against the particular cell of the exemplary compounds and of the chemotherapeutic agent are compared to the combination EC50 value. The combination Index (CI) score is calculated by the Chou and Talalay method (CalcuSyn software, Biosoft). A CI less 0.8 indicates synergy. A CI between 0.8 and 1.2 indicates additivity. A CI greater than 1.2 indicates antagonism.\nas §1, with “agents” for “agent”"}, "[5]": {"conditions": "compound alone, read-out: Compound No. 2-4 (comp. (A)) EC50"}, "[6]": {"conditions": "combination of 2-4 with Lapatinib"}, "[7]": {"conditions": "combination of 2-4 with PD-0325901"}, "[8]": {"conditions": "therapeutic (comp. (B)) alone, read-out: Chemot. EC50"}}, "note": "Read-outs that look alike come from different tables or passages of the source."}
{"smiles": "CS(=O)(=O)N1CCN(Cc2nc3c(N4CCOCC4)nc(-c4cccc5[nH]ncc45)cn3n2)CC1", "note": "[Compound 2-2]", "values": [{"measurement": "IC50", "setting": "[1]; Table 3, read-out: PI3Kα", "value": 128, "unit": "nM"}]}
{"smiles": "CS(=O)(=O)N1CCN(Cc2nc3c(N4CCOCC4)nc(-c4cnc(N)nc4)cn3n2)CC1", "note": "[Compound 2-3]", "values": [{"measurement": "IC50", "setting": "[1]; Table 3, read-out: PI3Kα", "value": 3, "unit": "nM"}, {"measurement": "IC50", "setting": "[2]", "value": 12, "unit": "nM"}]}
{"smiles": "CS(=O)(=O)N1CCN(Cc2nc3c(N4CCOCC4)nc(-c4cnc(N)nc4)c(Cl)n3n2)CC1", "note": "[Compound 2-4]", "values": [{"measurement": "IC50", "setting": "[1]; Table 3, read-out: PI3Kα", "value": 1.4, "unit": "nM"}, {"measurement": "EC50", "setting": "[3]; [5]", "value": 1000, "unit": "nM"}, {"measurement": "IC50", "setting": "[2]", "value": 64, "unit": "nM"}, {"measurement": "Synergy", "setting": "[4]; [6]", "value": "− (a combination index greater than 1.2)"}, {"measurement": "Combination Index (Cl)", "setting": "[4]; [6]", "value": 2.44}, {"measurement": "Synergy", "setting": "[4]; [7]", "value": "+++ (a combination index greater than 0.1 but lower than 0.3)"}, {"measurement": "Combination Index (Cl)", "setting": "[4]; [7]", "value": 0.27}, {"measurement": "EC50", "setting": "[4]; [5]", "value": 1000, "unit": "nM"}]}
{"smiles": "OCc1cc2c(N3CCOCC3)nc(-c3cccc(O)c3)cn2n1", "note": "[Compound 3-2]", "values": [{"measurement": "IC50", "setting": "[1]; Table 4, read-out: PI3Kα", "value": 174, "unit": "nM"}]}
{"smiles": "Cc1nnc2c(N3CCOCC3)nc(-c3cnc(N)nc3)cn12", "note": "[Compound 3-5]", "values": [{"measurement": "IC50", "setting": "[1]; Table 4, read-out: PI3Kα", "value": 165, "unit": "nM"}]}
{"smiles": "Cc1nnc2c(N3CCOCC3)nc(-c3cccc(O)c3)cn12", "note": "[Compound 3-6]", "values": [{"measurement": "IC50", "setting": "[1]; Table 4, read-out: PI3Kα", "value": 952, "unit": "nM"}]}
{"smiles": "CS(=O)(=O)N1CCN(Cc2cn3nc(-c4cnc(N)nc4)nc(N4CCOCC4)c3n2)CC1", "note": "[Compound 3-9]", "values": [{"measurement": "IC50", "setting": "[1]; Table 4, read-out: PI3Kα", "value": 3, "unit": "nM"}, {"measurement": "IC50", "setting": "[2]", "value": 5, "unit": "nM"}]}
{"smiles": "CS(=O)(=O)N1CCN(Cc2cc3c(N4CCOCC4)nc(-c4cnc(N)nc4)cn3n2)CC1", "note": "[Compound 3-10, 5-[2-(4-methanesulfonyl-piperazin-1-ylmethyl)-4-morpholin-4-yl-pyrazolo[1,5-a]pyrazin-6-yl]-pyrimidin-2-ylamine]", "values": [{"measurement": "IC50", "setting": "[1]; Table 4, read-out: PI3Kα", "value": 2, "unit": "nM"}, {"measurement": "IC50", "setting": "[2]", "value": 14, "unit": "nM"}]}
{"smiles": "Oc1cccc(-c2cn3cncc3c(N3CCOCC3)n2)c1", "note": "[Compound 3-11]", "values": [{"measurement": "IC50", "setting": "[1]; Table 4, read-out: PI3Kα", "value": 317, "unit": "nM"}]}
{"smiles": "COc1cccc(-c2cn3cncc3c(N3CCOCC3)n2)c1", "note": "[Compound 3-12, 6-(3-methoxy-phenyl)-8-morpholin-4-yl-imidazo[1,5-a]pyrazine]", "values": [{"measurement": "IC50", "setting": "[1]; Table 4, read-out: PI3Kα", "value": 2000, "unit": "nM"}]}
{"smiles": "CS(=O)(=O)N1CCC(NCc2cc3c(N4CCOCC4)nc(-c4cnc(N)nc4)cn3n2)CC1", "note": "[Compound 3-13, 5-{2-[(1-methanesulfonyl-piperidin-4-ylamino)-methyl]-4-morpholin-4-yl-pyrazolo[1,5-a]pyrazin-6-yl}-pyrimidin-2-ylamine]", "values": [{"measurement": "IC50", "setting": "[1]; read-out: IC50 PI3Kα", "value": 58, "unit": "nM"}]}
{"smiles": "COCCN(C)Cc1cc2c(N3CCOCC3)nc(-c3cnc(N)nc3)cn2n1", "note": "[Compound 3-14, 5-(2-{[(2-methoxy-ethyl)-methyl-amino]-methyl}-4-morpholin-4-yl-pyrazolo[1,5-a]pyrazin-6-yl)-pyrimidin-2-ylamine]", "values": [{"measurement": "IC50", "setting": "[1]; read-out: IC50 PI3Kα", "value": 106, "unit": "nM"}]}
{"smiles": "CS(=O)(=O)N1CCCN(Cc2cc3c(N4CCOCC4)nc(-c4cnc(N)nc4)cn3n2)CC1", "note": "[Compound 3-16, 5-[2-(4-methanesulfonyl-[1,4]diazepan-1-ylmethyl)-4-morpholin-4-yl-pyrazolo[1,5-a]pyrazin-6-yl]-pyrimidin-2-ylamine]", "values": [{"measurement": "IC50", "setting": "[1]; read-out: IC50 PI3Kα", "value": 13, "unit": "nM"}]}
{"smiles": "Nc1ncc(-c2cn3nc(CN4CCOCC4)cc3c(N3CCOCC3)n2)cn1", "note": "[Compound 3-17, 5-(4-morpholin-4-yl-2-morpholin-4-ylmethyl-pyrazolo[1,5-a]pyrazin-6-yl)-pyrimidin-2-ylamine]", "values": [{"measurement": "IC50", "setting": "[1]; read-out: IC50 PI3Kα", "value": 80, "unit": "nM"}]}
{"smiles": "CC(C)S(=O)(=O)N1CCN(Cc2cc3c(N4CCOCC4)nc(-c4cnc(N)nc4)cn3n2)CC1", "note": "[Compound 3-18, 5-{4-morpholin-4-yl-2-[4-(propane-2-sulfonyl)-piperazin-1-ylmethyl]-pyrazolo[1,5-a]pyrazin-6-yl}-pyrimidin-2-ylamine]", "values": [{"measurement": "IC50", "setting": "[1]; read-out: IC50 PI3Kα", "value": 6, "unit": "nM"}]}
{"smiles": "CS(=O)(=O)CCNCc1ccc(-c2ccc3ncnc(Nc4ccc(OCc5cccc(F)c5)c(Cl)c4)c3c2)o1", "note": "[Lapatinib, N-(3-chloro-4-(3-fluorobenzyloxy)phenyl)-6-(5-((2-(methylsulfonyl)ethylamino)-methyl)furan-2-yl)quinazolin-4-amine, reference compound]", "values": [{"measurement": "EC50", "setting": "[4]; [8]", "value": 1000, "unit": "nM"}]}
{"smiles": "O=C(NOC[C@H](O)CO)c1ccc(F)c(F)c1Nc1ccc(I)cc1F", "note": "[PD-0325901, (R)—N-(2,3-dihydroxypropoxy)-3,4-difluoro-2-(2-fluoro-4-iodophenylamino)benz-amide, reference compound]", "values": [{"measurement": "EC50", "setting": "[4]; [8]", "value": 1000, "unit": "nM"}]}
{"smiles": "CC(=O)O[C@@]12CO[C@@H]1C[C@H](O)[C@@]1(C)C(=O)[C@H](O)C3=C(C)[C@@H](OC(=O)[C@H](O)[C@@H](NC(=O)OC(C)(C)C)c4ccccc4)C[C@](O)([C@@H](OC(=O)c4ccccc4)[C@H]21)C3(C)C", "note": "[Taxotere, (2R,3S)—N-carboxy-3-phenylisoserine, N-tert-butyl ester, 13-ester with 5,20-epoxy-1,2,4,7,10,13-hexahydroxytax-11-en-9-one 4-acetate 2-benzoate, trihydrate, reference compound]", "values": [{"measurement": "EC50", "setting": "[3]; [8]", "value": 2000, "unit": "nM"}]}
